Key:
Assay type in all cases: physicochemical
[1] = Stability of PODS solutions in DMSO; settings: solution in DMSO, room temperature
Procedure: All intermediates were obtained in >95% purity using minimal equipment and simple procedures without chromatographic purifications. The methyl thioether 1 was obtained quantitatively via the methylation of the thiol with methyl iodide; unfortunately, we were not able to replace the use of the toxic methyl iodide with any safer reagent. The coupling between 1 and the carboxylic acid-bearing PEG chain was performed using EDCI as a coupling agent. Overnight reaction at room temperature led to the complete consumption of the starting material but also the formation of degradation products. It was possible to separate 2 from the two unidentified impurities by precipitating it with a mixture of ethyl acetate and cyclohexane. The oxidation of 2 was performed using the peracid mCPBA. This lead to the formation of the methylsulfone 3 with a yield of 90%. Finally, PODS was obtained from 3 after the quantitative deprotection of the terminal amine using a solution of trifluoroacetic acid in dichloromethane. Solutions of PODS in DMSO were stable at room temperature and have been kept at room temperature for 5 months without any noticeable signs of degradation.

[2] = Reaction of PODS with glutathione; settings: pH 7.5
Procedure: (§1) The reaction between PODS and Boc-L-cysteine was quantitative in less than 2 minutes at pH 7.5. See FIG. 3A, FIG. 3B and FIG. 3C. In a move toward a model closer to proteins and peptides, a tripeptide containing a central cysteine—glutathione—was reacted with PODS as well. Again, the conjugation reaction reached completion before the first measurement could be acquired (<3 min at pH 7.5).

[3] = Reaction of PODS with model thiol Boc-L-cysteine (with TCEP); settings: pH 7.5, TCEP
Procedure: In order to study the reactivity of PODS with thiols, Boc-L-cysteine was used as a model thiol in conjunction with the mild reducing agent tris(2-carboxyethyl)phosphine (TCEP), whose role was the reduction of any latent cystine species in solution (FIG. 2).
as §1

time kept without any noticeable signs of degradation [1]: ≥ 5 months
SMILES: CS(=O)(=O)c1nnc(-c2ccc(NC(=O)CCC(=O)NCCCOCCOCCOCCCN)cc2)o1 [PODS, N^1-(3-(2-(2-(3-Aminopropoxy)ethoxy)ethoxy)propyl)-N′-(4-(5-(methylsulfonyl)-1,3,4 oxadiazol-2-yl)phenyl)succinamide]
time to completion of conjugation reaction with glutathione [2]: < 3 min
time to quantitative reaction with Boc-L-cysteine [3]: less than 2 minutes

— US11000604B2, “Reagent for site-selective bioconjugation of proteins or antibodies” (Research Foundation of the City University of New York, priority 2017, dated 2021)
